Data reported in the CheMixHub viscosity set.
± gives the uncertainty stated by the source.

Assay: xn = mol fraction of the nth substance listed

C=Cc1ccccc1 + CCCCO
viscosity [mPa·s], 101.33 kPa
Conditions	x1 = 0.0999	x1 = 0.2019	x1 = 0.2994	x1 = 0.3982	x1 = 0.5226	x1 = 0.602	x1 = 0.703	x1 = 0.7942	x1 = 0.8935
298.15 K	1.971 ± 0.091	1.644 ± 0.077	1.368 ± 0.065	1.165 ± 0.056	0.969 ± 0.048	0.913 ± 0.046	0.821 ± 0.042	0.772 ± 0.04	0.729 ± 0.038
303.15 K	1.809 ± 0.084	1.47 ± 0.07	1.23 ± 0.059	1.052 ± 0.052	0.885 ± 0.044	0.83 ± 0.042	0.767 ± 0.039	0.721 ± 0.037	0.681 ± 0.036
308.15 K	1.636 ± 0.077	1.327 ± 0.063	1.104 ± 0.054	0.95 ± 0.047	0.811 ± 0.041	0.762 ± 0.039	0.693 ± 0.036	0.66 ± 0.035	0.63 ± 0.033

CC(C)(C)N + CCCCOC(C)=O
303.15 K, 101 kPa
Conditions	viscosity [mPa·s]
x1 = 0.1472	0.6309 ± 0.0052
x1 = 0.229	0.6186 ± 0.0052
x1 = 0.3626	0.5943 ± 0.005
x1 = 0.435	0.5852 ± 0.0049
x1 = 0.5578	0.5545 ± 0.0047
x1 = 0.6566	0.5313 ± 0.0045
x1 = 0.7339	0.5091 ± 0.0044
x1 = 0.8272	0.4861 ± 0.0042

BrC(Br)Br + CCCO
viscosity [mPa·s], 101 kPa
Conditions	x1 = 0.0998	x1 = 0.1979	x1 = 0.2988	x1 = 0.4005	x1 = 0.5	x1 = 0.5953	x1 = 0.69	x1 = 0.7999	x1 = 0.9007
298.15 K	1.964 ± 0.019	1.932 ± 0.019	1.879 ± 0.018	1.813 ± 0.017	1.782 ± 0.017	1.767 ± 0.017	1.768 ± 0.016	1.786 ± 0.016	1.853 ± 0.017
303.15 K	1.737 ± 0.017	1.716 ± 0.017	1.681 ± 0.016	1.647 ± 0.016	1.623 ± 0.015	1.621 ± 0.015	1.632 ± 0.015	1.674 ± 0.015	1.734 ± 0.016
308.15 K	1.543 ± 0.015	1.528 ± 0.015	1.506 ± 0.015	1.481 ± 0.014	1.481 ± 0.014	1.49 ± 0.014	1.505 ± 0.014	1.559 ± 0.014	1.618 ± 0.015
313.15 K	1.363 ± 0.014	1.363 ± 0.014	1.354 ± 0.013	1.339 ± 0.013	1.352 ± 0.013	1.379 ± 0.013	1.393 ± 0.013	1.448 ± 0.013	1.515 ± 0.014

C=Cc1ccccc1 + CCCO
298.15 K, 101.33 kPa
Conditions	viscosity [mPa·s]
x1 = 0.0999	1.594 ± 0.075
x1 = 0.1997	1.326 ± 0.063
x1 = 0.298	1.153 ± 0.056
x1 = 0.3952	1.011 ± 0.05
x1 = 0.4985	0.892 ± 0.045
x1 = 0.6022	0.815 ± 0.041
x1 = 0.6984	0.762 ± 0.039
x1 = 0.7985	0.727 ± 0.038
x1 = 0.9019	0.707 ± 0.037

CCC(C)(C)OC + CCCO
298.15 K, 101.33 kPa
Conditions	viscosity [mPa·s]
x1 = 0.0142	1.889 ± 0.057
x1 = 0.0405	1.759 ± 0.054
x1 = 0.0642	1.647 ± 0.05
x1 = 0.0889	1.548 ± 0.048
x1 = 0.1148	1.461 ± 0.045
x1 = 0.152	1.33 ± 0.042
x1 = 0.2075	1.18 ± 0.038
x1 = 0.2876	1.002 ± 0.033
x1 = 0.289	0.999 ± 0.033
x1 = 0.3381	0.912 ± 0.03
x1 = 0.3924	0.833 ± 0.028
x1 = 0.4452	0.767 ± 0.026
x1 = 0.489	0.72 ± 0.025
x1 = 0.5363	0.677 ± 0.024
x1 = 0.5867	0.633 ± 0.023
x1 = 0.645	0.594 ± 0.022
x1 = 0.6933	0.564 ± 0.021
x1 = 0.7588	0.53 ± 0.02
x1 = 0.8347	0.496 ± 0.019
x1 = 0.9093	0.455 ± 0.018
x1 = 0.947	0.454 ± 0.018

CCCCCCCCO + CCCO
viscosity [mPa·s], 101 kPa
Conditions	298.15 K	308.15 K	318.15 K
x2 = 0.05	7.025 ± 0.069	4.92 ± 0.048	3.71 ± 0.034
x2 = 0.1	6.694 ± 0.066	4.637 ± 0.045	3.555 ± 0.033
x2 = 0.15	6.37 ± 0.063	4.394 ± 0.043	3.406 ± 0.031
x2 = 0.2	6.052 ± 0.06	4.183 ± 0.041	3.261 ± 0.029
x2 = 0.25	5.742 ± 0.056	3.995 ± 0.039	3.12 ± 0.028
x2 = 0.3	5.438 ± 0.053	3.824 ± 0.037	2.982 ± 0.027
x2 = 0.35	5.141 ± 0.05	3.663 ± 0.035	2.847 ± 0.026
x2 = 0.4	4.851 ± 0.047	3.507 ± 0.033	2.713 ± 0.025
x2 = 0.45	4.568 ± 0.043	3.353 ± 0.031	2.581 ± 0.023
x2 = 0.5	4.291 ± 0.04	3.197 ± 0.029	2.45 ± 0.022
x2 = 0.55	4.021 ± 0.037	3.036 ± 0.028	2.32 ± 0.021
x2 = 0.6	3.758 ± 0.034	2.869 ± 0.026	2.191 ± 0.02
x2 = 0.65	3.501 ± 0.032	2.696 ± 0.024	2.063 ± 0.019
x2 = 0.7	3.249 ± 0.029	2.517 ± 0.023	1.936 ± 0.017
x2 = 0.75	3.003 ± 0.027	2.333 ± 0.021	1.811 ± 0.016
x2 = 0.8	2.762 ± 0.025	2.147 ± 0.019	1.687 ± 0.015
x2 = 0.85	2.526 ± 0.023	1.962 ± 0.017	1.565 ± 0.014
x2 = 0.9	2.294 ± 0.021	1.782 ± 0.016	1.445 ± 0.013
x2 = 0.95	2.065 ± 0.018	1.612 ± 0.014	1.329 ± 0.012

CC(=O)c1ccc(Cl)cc1 + CCNc1ccccc1
303.15 K, 100 kPa
Conditions	viscosity [mPa·s]
x2 = 0.0798	2.295 ± 0.028
x2 = 0.1568	2.242 ± 0.027
x2 = 0.2321	2.191 ± 0.027
x2 = 0.2989	2.147 ± 0.026
x2 = 0.3614	2.106 ± 0.026
x2 = 0.4467	2.051 ± 0.025
x2 = 0.5163	2.008 ± 0.025
x2 = 0.5841	1.967 ± 0.024
x2 = 0.6601	1.922 ± 0.024
x2 = 0.7245	1.885 ± 0.024
x2 = 0.7874	1.85 ± 0.023
x2 = 0.8487	1.818 ± 0.023
x2 = 0.9042	1.788 ± 0.023
